Data taken from patent US9458203B2, “Integrin-blocking polypeptides and uses thereof” (priority 2011, dated 2016).
Several values for one entry are separate records, joined by “and”; a condition that tells them apart may be missing. Equal values may be shown once. Read-outs that look alike come from different tables or passages of the source. Ends that are not written are not given here.

Columns and labels:
[1] = assay type: in vivo, nude mice; details: mouse, in vivo
From the text: (§1) The total medication period was 14 days.

[2] = tested on: human testicular cancer 5637; assay type: in vivo, nude mice; details: for toxic and side effects, in words: mouse, in vivo
From the text: as §1

sarcoma HT-1080 = assay type: in vivo, nude mice; details: for body weight of animals, in words / toxic and side effects, in words / final weight: mouse, in vivo
From the text: as §1

[3] = tested on: human cervical cancer HeLa; assay type: in vivo, nude mice
Experimental: (§2) Taking a certain amount of vigorously growing tumor tissue, grinding the tumor tissue under sterile conditions and preparing cell suspension at the concentration of 1×10^7 cells/ml; then hypodermicaly inoculating 0.1 ml of the cell suspension into the right axillary region of nude mice. Keeping measuring the diameter of the transplanted tumor with a vernier caliper, and randomly dividing the mice into groups when the volume of the tumor reached 100-200 mm^3. […] Measuring the tumor diameter once every other day and recording the body weight of mice simultaneously. Intravenously injecting polypeptides to mice from test groups while administering equal quantity of physiological saline to mice from the negative control group. The total medication period was 14 days. Avastin was adopted to set up a positive control group; it was administered through the tail vein once every three days while all other drugs were administered through the tail vein once a day. Leaving mice for a one-week rest after 14 days' medication, then (21 days after medication) killing the mice, surgically dissecting the tumors and measuring the weight of tumors. The tumor volume (TV) was calculated in accordance with the following formula: TV=½×a×b^2

[4] = tested on: human prostate cancer DU-145; assay type: in vivo, nude mice
Experimental: as §2

human colon cancer HT-29 = assay type: in vivo, nude mice
Experimental: as §2

[5] = tested on: human thyroid cancer SW-579; assay type: in vivo, nude mice
Experimental: as §2

human renal cancer A498 = assay type: in vivo, nude mice
Experimental: as §2

[6] = tested on: human ovarian cancer SK-OV-3; assay type: in vivo, nude mice
Experimental: as §2

melanoma B16F10 = assay: transplanted melanoma B16F10 in C57BL/6 black mice
Experimental: Hypodermically injecting polypeptides and other drugs into the left axillary region of mice from the experimental groups respectively while administering only equal quantity of physiological saline to the mice from the negative control group. The total medication period was 14 days, during which cyclophosphamide was administered once every other day, taxol once every three days, low-dose polypeptide twice a day and all other drugs once a day.

[7] = tested on: human esophageal cancer Ec109; assay type: in vivo, nude mice
From the text: as §1

[8] = tested on: human bladder cancer HT1376; assay: heterotransplanted human bladder cancer HT1376 in nude mice; assay type: in vivo
From the text: as §1

[9] = tested on: human pancreatic cancer SW-1990; assay: heterotransplanted human pancreatic cancer SW-1990 in nude mice; assay type: in vivo
From the text: as §1

[10] = tested on: human laryngeal cancer Hep-2; assay: heterotransplanted human laryngeal cancer Hep-2 in nude mice; assay type: in vivo
From the text: as §1

[11] = tested on: human breast cancer MDA-MB-231; details: mouse, in vivo
Experimental: (§3) Taking a certain amount of vigorously growing tumor tissue, grinding the tumor tissue under sterile conditions and preparing cell suspension at the concentration of 1×10^7 cells/ml; then hypodermicaly inoculating 0.1 ml of the cell suspension into the right axillary region of nude mice. Keeping measuring the diameter of the transplanted tumor with a vernier caliper, and randomly dividing the mice into groups when the volume of the tumor reached 100-200 mm^3. Observing the dynamic effect of integrin-blocking polypeptides on inhibiting the growth of the tumor by means of documenting the change of tumor diameters. Measuring the tumor diameter once every other day and recording the body weight of mice simultaneously. Intravenously injecting polypeptides to mice from test groups while administering equal quantity of physiological saline to mice from the negative control group. The total medication period was 14 days. Avastin was adopted to set up a positive control group; it was administered through the tail vein once every three days while all other drugs were administered through the tail vein once a day. Leaving mice for a one-week rest after 14 days' medication, then (21 days after medication) killing the mice, surgically dissecting the tumors and measuring the weight of tumors. The tumor volume (TV) was calculated in accordance with the following formula: TV=½×a×b^2
(§4) wherein a, b refer to the length and width of the tumor respectively.
(§5) The relative tumor volume (RTV) can be calculated in accordance with the results of measurement, using the formula: RTV=Vt/V0, wherein V0 refers to the initial tumor volume measured on the date starting medication (namely d0) while Vt the tumor volume obtained through every measurement. The anti-tumor activity was evaluated by relative proliferation rate T/C (%), which was calculated in accordance with the following formula:
(§6) wherein TRTV refers to the RTV of experimental groups; CRTV refers to the RTV of the negative control group.

[12] = tested on: human gastric cancer MGC-803; details: mouse, in vivo
From the text: Keeping measuring the diameter of the transplanted tumor with a vernier caliper, and randomly dividing the mice into groups when the volume of the tumor reached 100-200 mm^3. Observing the dynamic effect of integrin-blocking polypeptides on inhibiting the growth of the tumor by means of documenting the change of tumor diameters. Measuring the tumor diameter once every other day and recording the body weight of mice simultaneously. Intravenously injecting polypeptides to mice from test groups while administering equal quantity of physiological saline to mice from the negative control group. The total medication period was 14 days. Avastin was adopted to set up a positive control group; it was administered through the tail vein once every three days while all other drugs were administered through the tail vein once a day. Leaving mice for a one-week rest after 14 days' medication, then (21 days after medication) killing the mice, surgically dissecting the tumors and measuring the weight of tumors. The tumor volume (TV) was calculated in accordance with the following formula: TV=½×a×b^2

human lung cancer H460 = details: mouse, in vivo
Experimental: as §3
(§7) Taxol used in the positive control group was administered once every 3 days through tail vein injection, while drugs of all other groups were administered on daily basis through tail vein injection.

[13] = tested on: human liver cancer SMMC-7721; details: mouse, in vivo
Experimental: as §3, §7

[14] = tested on: human endometrial cancer HHUA; details: mouse, in vivo
Experimental: as §3, §7

[15] = tested on: human gallbladder cancer GBC-SD; details: mouse, in vivo
Experimental: as §3
(§8) Avastin used in the positive control group was administered once every 2 days through tail vein injection, while drugs of all other groups were administered on daily basis through tail vein injection.

human brain tumor SF763 = details: mouse, in vivo
Experimental: as §3, §7

[16] = tested on: human rectal cancer Colo 320; details: mouse, in vivo
Experimental: as §3, §7

[17] = tested on: human breast cancer MDA-MB-231; assay: heterotransplanted human breast cancer MDA-MB-231 in nude mice; details: 10 mg/kg/time, tail vein once every three days
Experimental: as §3, §4, §5, §6

[18] = tested on: human gallbladder cancer GBC-SD; assay: heterotransplanted human gallbladder cancer GBC-SD in nude mice
Experimental: as §3, §8

[19] = 10 mg/kg/time, once every 3 days, tail vein injection
[20] = 5-FU 10 mg/kg/time, once every 3 days, tail vein injection
[21] = positive control, tail vein once every 3 days
[22] = 10 mg/kg/time, tail vein once every 3 days
[23] = 5 mg/kg/time (as printed in Table 29), once every 3 days, tail vein injection
[24] = cisplatin 10 mg/kg/time, once every 3 days, tail vein injection
[25] = 15 mg/kg/time once every other day, hypodermic, 14 days
[26] = avastin 10 mg/kg/time, once every 3 days, tail vein injection
[27] = 10 mg/kg/time, once every 2 days, tail vein injection

In the case of `O=c1[nH]cc(F)c(=O)[nH]1` [5-FU, 5-fluorouracil, reference compound], the “body weight of animals, in words” value [1] is reported as “greatly reduced the body weight”, the tumor inhibition rate [2, 19] is reported as 77.80% and the tumor weight [2, 19] is reported as 0.28 ± 0.06 g. The “toxic and side effects, in words” value [2] was “more apparent toxic and side effects”, the “inhibition rate on tumor” value ([2]; tail vein once every 3 days) was 77.80% and 73.84% and the tumor inhibition rate (sarcoma HT-1080; [20]) was 78.10%. For the same compound, the tumor weight (sarcoma HT-1080; [20]) was 0.30 ± 0.07 g, the “body weight of animals, in words” value (sarcoma HT-1080) was “greatly reduced the body weight” and the “toxic and side effects, in words” value (sarcoma HT-1080) was “more apparent toxic and side effects”. For the same compound, the “inhibition rate on tumor” value (sarcoma HT-1080; [21]) was 78.10%.

For `N.N.[Cl][Pt][Cl]` [cisplatin, reference compound], the tumor inhibition rate [3, 22] was 73.13%, the tumor weight [3, 22] was 0.38 ± 0.10 g and the “body weight of animals, in words” value ([3]; mouse, in vivo) was “greatly reduced the body weight”. The tumor inhibition rate [4, 23] was 73.84%, the tumor weight [4, 23] was 0.37 ± 0.10 g and the tumor inhibition rate [4, 19] was 73.84%. It also gave a tumor weight [4, 19] of 0.37 ± 0.10 g, a tumor inhibition rate [4, 22] of 73.84% and a tumor weight [4, 22] of 0.37 ± 0.10 g. The “body weight of animals, in words” value ([4]; mouse, in vivo) was “greatly reduced the body weight”, the tumor inhibition rate (human colon cancer HT-29; [19]) was 79.17% and the tumor weight (human colon cancer HT-29; [19]) was 0.30 ± 0.05 g. The “body weight of animals, in words” value (human colon cancer HT-29; mouse, in vivo) was “greatly reduced the body weight”, the “inhibition rate on tumor” value (human colon cancer HT-29; [21]) was 79.17% and the tumor inhibition rate [5, 19] was 74.09%. The tumor weight [5, 19] was 0.34 ± 0.07 g, the “body weight of animals, in words” value ([5]; mouse, in vivo) was “greatly reduced the body weight” and the “inhibition rate on tumor” value [5, 21] was 74.09%. For the same compound, the tumor inhibition rate (human renal cancer A498; [19]) was 79.83%, the tumor weight (human renal cancer A498; [19]) was 0.25 ± 0.06 g and the “body weight of animals, in words” value (human renal cancer A498; mouse, in vivo) was “greatly reduced the body weight”. The “inhibition rate on tumor” value (human renal cancer A498; [21]) was 79.83%, the tumor inhibition rate [6, 24] was 78.36% and the tumor weight [6, 24] was 0.29 ± 0.06 g. The “body weight of animals, in words” value ([6]; mouse, in vivo) was “greatly reduced the body weight” and the “inhibition rate on tumor” value [6, 21] was 78.36%.

In the case of `O=P1(N(CCCl)CCCl)NCCCO1` (stereo not shown) [cyclophosphamide], the final weight (melanoma B16F10; [25]) is reported as 17.3 ± 1.5 g, the tumor inhibition rate (melanoma B16F10; [25]) is reported as 64.95% and the tumor weight (melanoma B16F10; [25]) is reported as 1.40 ± 0.06 g.

With “FQPVLHLVALNSPLSGGMRGIRGADFQCFQQARAVGLAGTFRAGGGGRGD [polypeptide III]” the “body weight of animals, in words” value (melanoma B16F10; mouse, in vivo) was “no severe weight change”, the “toxic and side effects, in words” value (melanoma B16F10; mouse, in vivo) was “no severe weight change or obvious toxic and side effects” and the “body weight of animals, in words” value ([3]; mouse, in vivo) was “no significant change in body weight”. For the same compound, the “toxic and side effects, in words” value ([3]; mouse, in vivo) was “no obvious toxic and side effects”, the “body weight of animals, in words” value ([4]; mouse, in vivo) was “no significant change in body weight” and the “toxic and side effects, in words” value ([4]; mouse, in vivo) was “no obvious toxic and side effects”. For the same compound, the “body weight of animals, in words” value [1] was “no significant change in body weight”, the “body weight of animals, in words” value ([7]; mouse, in vivo) was “no significant change in body weight” and the “toxic and side effects, in words” value ([7]; mouse, in vivo) was “no obvious toxic and side effects”. The “toxic and side effects, in words” value [2] was “no obvious toxic and side effects”, the “body weight of animals, in words” value (sarcoma HT-1080) was “no significant change in body weight” and the “toxic and side effects, in words” value (sarcoma HT-1080) was “no obvious toxic and side effects”. For the same compound, the final weight (sarcoma HT-1080; 0.1875 mg/kg) was 22.92 ± 0.57 g, the final weight (sarcoma HT-1080; 0.375 mg/kg) was 23.18 ± 0.57 g and the final weight (sarcoma HT-1080; 0.75 mg/kg) was 23.07 ± 0.56 g. The “body weight of animals, in words” value ([8]; mouse, in vivo) was “no significant change in body weight”, the “toxic and side effects, in words” value ([8]; mouse, in vivo) was “no obvious toxic and side effects” and the “body weight of animals, in words” value ([9]; mouse, in vivo) was “no significant change in body weight”. The “toxic and side effects, in words” value ([9]; mouse, in vivo) was “no obvious toxic and side effects”, the “body weight of animals, in words” value (human colon cancer HT-29; mouse, in vivo) was “no significant change in body weight” and the “toxic and side effects, in words” value (human colon cancer HT-29; mouse, in vivo) was “no obvious toxic and side effects”. The “body weight of animals, in words” value ([5]; mouse, in vivo) was “no significant change in body weight”, the “toxic and side effects, in words” value ([5]; mouse, in vivo) was “no obvious toxic and side effects” and the “body weight of animals, in words” value (human renal cancer A498; mouse, in vivo) was “no significant change in body weight”. For the same compound, the “toxic and side effects, in words” value (human renal cancer A498; mouse, in vivo) was “no obvious toxic and side effects”, the “body weight of animals, in words” value ([6]; mouse, in vivo) was “no significant change in body weight” and the “toxic and side effects, in words” value ([6]; mouse, in vivo) was “no obvious toxic and side effects”. It also gave a final weight ([6]; mouse, in vivo, 0.1875 mg/kg) of 22.83 ± 0.50 g, a final weight ([6]; mouse, in vivo, 0.375 mg/kg) of 22.92 ± 0.70 g and a final weight ([6]; mouse, in vivo, 0.75 mg/kg) of 22.95 ± 0.64 g. For the same compound, the “body weight of animals, in words” value ([10]; mouse, in vivo) was “no significant change in body weight”, the “toxic and side effects, in words” value ([10]; mouse, in vivo) was “no obvious toxic and side effects” and the final weight ([10]; mouse, in vivo, 0.1875 mg/kg) was 22.94 ± 0.46 g. The final weight ([10]; mouse, in vivo, 0.375 mg/kg) was 22.96 ± 0.57 g, the final weight ([10]; mouse, in vivo, 0.75 mg/kg) was 23.18 ± 0.51 g and the “body weight of animals, in words” value [11] was “no significant change in body weight”. For the same compound, the “toxic and side effects, in words” value [11] was “no obvious toxic and side effects”, the “body weight of animals, in words” value [12] was “no significant change in body weight” and the “toxic and side effects, in words” value [12] was “no obvious toxic and side effects”. For the same compound, the “body weight of animals, in words” value (human lung cancer H460) was “no significant change in body weight”, the “toxic and side effects, in words” value (human lung cancer H460) was “no obvious toxic and side effects” and the “body weight of animals, in words” value [13] was “no significant change in body weight”. The “toxic and side effects, in words” value [13] was “no obvious toxic and side effects”, the “body weight of animals, in words” value [14] was “no significant change in body weight” and the “toxic and side effects, in words” value [14] was “no obvious toxic and side effects”. The “body weight of animals, in words” value [15] was “no significant change in body weight”, the “toxic and side effects, in words” value [15] was “no obvious toxic and side effects” and the “body weight of animals, in words” value (human brain tumor SF763) was “no significant change in body weight”. For the same compound, the “toxic and side effects, in words” value (human brain tumor SF763) was “no obvious toxic and side effects”, the final weight (human brain tumor SF763; 0.1875 mg/kg) was 23.31 ± 0.57 g and the final weight (human brain tumor SF763; 0.375 mg/kg) was 23.37 ± 0.56 g. The final weight (human brain tumor SF763; 0.75 mg/kg) was 23.09 ± 0.53 g, the “body weight of animals, in words” value [16] was “no significant change in body weight” and the “toxic and side effects, in words” value [16] was “no obvious toxic and side effects”. For the same compound, the final weight ([16]; 0.1875 mg/kg) was 22.81 ± 0.60 g, the final weight ([16]; 0.375 mg/kg) was 22.93 ± 0.56 g and the final weight ([16]; 0.75 mg/kg) was 23.14 ± 0.48 g.

With “avastin: Avastin was adopted to set up a positive control group [reference compound]” the tumor inhibition rate [7, 19] was 69.00%, the tumor weight [7, 19] was 0.47 ± 0.10 g and the “body weight of animals, in words” value ([7]; mouse, in vivo) was “no significant change”. For the same compound, the “inhibition rate on tumor” value [7, 21] was 69.00%, the tumor inhibition rate [8, 19] was 79.60% and the tumor weight [8, 19] was 0.24 ± 0.06 g. For the same compound, the “body weight of animals, in words” value ([8]; mouse, in vivo) was “no significant change”, the “inhibition rate on tumor” value [8, 21] was 79.60% and the tumor inhibition rate [9, 19] was 79.07%. The tumor weight [9, 19] was 0.27 ± 0.07 g, the “body weight of animals, in words” value ([9]; mouse, in vivo) was “no significant change” and the “inhibition rate on tumor” value [9, 21] was 79.07%. For the same compound, the tumor inhibition rate [10, 26] was 76.79%, the tumor weight [10, 26] was 0.26 ± 0.06 g and the “body weight of animals, in words” value ([10]; mouse, in vivo) was “no significant change”. The “inhibition rate on tumor” value [10, 21] was 76.79%, the “body weight of animals, in words” value [11] was “no obvious change” and the “body weight of animals, in words” value [15] was “no significant change”. For the same compound, the tumor weight [17] was 0.26 ± 0.08 g, the tumor inhibition rate [18, 27] was 78.85% and the tumor weight [18, 27] was 0.25 ± 0.06 g. For the same compound, the “inhibition rate on tumor” value ([18]; positive control, tail vein once every 2 days) was 78.85%.
